The subject of experiment [1] is Plasmodium falciparum. The experiment in a line: In vitro growth inhibition as IC50 against chloroquine-resistant Plasmodium falciparum FcB2. Type of experiment: functional, organism-based.
In experiment [2] the test system is Plasmodium falciparum. Put plainly: In vitro growth inhibition as IC50 against chloroquine-resistant Plasmodium falciparum FcB1. Type of experiment: functional, organism-based.
In experiment [3] the test system is Mus musculus. Put plainly: In vivo activity against Plasmodium berghei parasitaemia. Type of experiment: functional, organism-based.
The subject of experiment [4] is Mus musculus. The experiment in a line: In vivo activity against Plasmodium berghei parasitaemia. The format is functional.

In general, IC50 refers to the concentration that gives 50% inhibition. A lower IC50 goes with inhibition by little substance.

Regarding “4N-(4-diethylamino-1-methylbutyl)-7-chloro-4-quinolinamine 1-N-[Au(PPh3)] compound with PF6- [listing 1 of 2 here]”, the IC50 turned out to be 23 nM with Plasmodium falciparum [1] and 5.1 nM with Plasmodium falciparum [2].
For “4N-(4-diethylamino-1-methylbutyl)-7-chloro-4-quinolinamine 1-N-[Au(PPh3)] compound with PF6- [listing 2 of 2 here]”, in the experiment with Mus musculus [3], the Parasitemia amounted to 7%.
Turning to `CCN(CC)CCCC(C)Nc1ccnc2cc(Cl)ccc12.O=P(O)(O)O.O=P(O)(O)O` (centres undefined) [CHLOROQUINE PHOSPHATE], the Parasitemia in the experiment on Mus musculus [4] amounted to 25%.

The values above are taken from ChEMBL document CHEMBL1130066, “Toward a novel metal-based chemotherapy against tropical diseases. 3. Synthesis and antimalarial activity in vitro and in vivo of the new gold-chloroquine complex [Au(PPh3)(CQ)]PF6” (J Med Chem, 1997).
